Assay results from article PMC9866191, “Novel 9-Benzylaminoacridine Derivatives as Dual Inhibitors of Phosphodiesterase 5 and Topoisomerase II for the Treatment of Colon Cancer” (Molecules, 2023).

What was measured:
Experiment in all cases: NCI-60 one-dose screen
Assay type in all cases: cell-based
[1] = tested on: SK-OV-3; conditions: Homo sapiens; SK-OV-3, Ovarian Cancer panel; single dose 10^−5 M; read-out: Growth inhibition %
[2] = tested on: TK-10; conditions: Homo sapiens; TK-10, Renal Cancer panel; single dose 10^−5 M; read-out: Growth inhibition %
[3] = tested on: SF-295; conditions: Homo sapiens; SF-295, CNS Cancer panel; single dose 10^−5 M; read-out: Growth inhibition %
[4] = tested on: A498; conditions: Homo sapiens; A498, Renal Cancer panel; single dose 10^−5 M; read-out: Growth inhibition %
[5] = tested on: HT29; conditions: Homo sapiens, HT-29; HT29, Colon Cancer panel; single dose 10^−5 M; read-out: Growth inhibition %
[6] = tested on: MALME-3M; conditions: Homo sapiens, Melanoma panel, single dose 10^−5 M, read-out: Growth inhibition %
[7] = tested on: SF-539; conditions: Homo sapiens; SF-539, CNS Cancer panel; single dose 10^−5 M; read-out: Growth inhibition %
[8] = tested on: EKVX; conditions: Homo sapiens, Non-small cell lung panel, single dose 10^−5 M, read-out: Growth inhibition %
[9] = tested on: OVCAR-8; conditions: Homo sapiens; OVCAR-8, Ovarian Cancer panel; single dose 10^−5 M; read-out: Growth inhibition %
[10] = tested on: DU-145; conditions: Homo sapiens; DU-145, Prostate Cancer panel; single dose 10^−5 M; read-out: Growth inhibition %
[11] = tested on: HCT-15; conditions: Homo sapiens; HCT-15, Colon Cancer panel; single dose 10^−5 M; read-out: Growth inhibition %
[12] = tested on: BT-549; conditions: Homo sapiens; BT-549, Breast Cancer panel; single dose 10^−5 M; read-out: Growth inhibition %
[13] = tested on: NCI-H226; conditions: Homo sapiens; NCI-H226, Non-small cell lung panel; single dose 10^−5 M; read-out: Growth inhibition %
[14] = tested on: HCC-2998; conditions: Homo sapiens; HCC-2998, Colon Cancer panel; single dose 10^−5 M; read-out: Growth inhibition %
[15] = tested on: T-47D; conditions: Homo sapiens, T47D, Breast Cancer panel, single dose 10^−5 M, read-out: Growth inhibition %
[16] = tested on: U251; conditions: Homo sapiens, U-251; U251, CNS Cancer panel; single dose 10^−5 M; read-out: Growth inhibition %
[17] = tested on: SNB-19; conditions: Homo sapiens; SNB-19, CNS Cancer panel; single dose 10^−5 M; read-out: Growth inhibition %
[18] = tested on: UACC-257; conditions: Homo sapiens; UACC-257, Melanoma panel; single dose 10^−5 M; read-out: Growth inhibition %
[19] = tested on: OVCAR-5; conditions: Homo sapiens; OVCAR-5, Ovarian Cancer panel; single dose 10^−5 M; read-out: Growth inhibition %
[20] = tested on: COLO 205; conditions: Homo sapiens; COLO 205, Colon Cancer panel; single dose 10^−5 M; read-out: Growth inhibition %
[21] = tested on: SR; conditions: Homo sapiens, Leukemia panel, single dose 10^−5 M, read-out: Growth inhibition %
[22] = tested on: SK-MEL-5; conditions: Homo sapiens; SK-MEL-5, Melanoma panel; single dose 10^−5 M; read-out: Growth inhibition %
[23] = tested on: M14; conditions: Homo sapiens; M14, Melanoma panel; single dose 10^−5 M; read-out: Growth inhibition %
[24] = tested on: K-562; conditions: Homo sapiens, K562; K-562, Leukemia panel; single dose 10^−5 M; read-out: Growth inhibition %
[25] = tested on: RXF 393; conditions: Homo sapiens; RXF 393, Renal Cancer panel; single dose 10^−5 M; read-out: Growth inhibition %
[26] = tested on: RPMI-8226; conditions: Homo sapiens; RPMI-8226, Leukemia panel; single dose 10^−5 M; read-out: Growth inhibition %
[27] = tested on: SK-MEL-2; conditions: Homo sapiens; SK-MEL-2, Melanoma panel; single dose 10^−5 M; read-out: Growth inhibition %
[28] = tested on: SW-620; conditions: Homo sapiens; SW-620, Colon Cancer panel; single dose 10^−5 M; read-out: Growth inhibition %
[29] = tested on: UACC-62; conditions: Homo sapiens; UACC-62, Melanoma panel; single dose 10^−5 M; read-out: Growth inhibition %
[30] = tested on: PC-3; conditions: Homo sapiens; PC-3, Prostate Cancer panel; single dose 10^−5 M; read-out: Growth inhibition %
[31] = tested on: KM12; conditions: Homo sapiens; KM12, Colon Cancer panel; single dose 10^−5 M; read-out: Growth inhibition %
[32] = tested on: CCRF-CEM; conditions: Homo sapiens, Leukemia panel, single dose 10^−5 M, read-out: Growth inhibition %

Row | SMILES | inhibition at 10 µM [1] [%] | inhibition at 10 µM [2] [%] | inhibition at 10 µM [3] [%] | inhibition at 10 µM [4] [%] | inhibition at 10 µM [5] [%] | inhibition at 10 µM [6] [%] | inhibition at 10 µM [7] [%] | inhibition at 10 µM [8] [%] | inhibition at 10 µM [9] [%] | inhibition at 10 µM [10] [%] | inhibition at 10 µM [11] [%] | inhibition at 10 µM [12] [%] | inhibition at 10 µM [13] [%] | inhibition at 10 µM [14] [%] | inhibition at 10 µM [15] [%] | inhibition at 10 µM [16] [%] | inhibition at 10 µM [17] [%] | inhibition at 10 µM [18] [%] | inhibition at 10 µM [19] [%] | inhibition at 10 µM [20] [%] | other results
1 | Fc1ccc(CNc2c3ccccc3nc3ccccc23)cc1F [Compound 22, Acridin-9-yl-(3,4-difluorobenzyl)-amine] | 44.3 | 48.9 | 70.2 | 90.2 | 86.6 | 49.3 | 77.9 | 64.5 | 67.9 | 60.5 | 82 | 31.8 | 52.4 | 97.8 | 52.1 | 69.7 | 67.1 | 34.9 | 55.4 | 83.9 | inhibition at 10 µM [21]: 83%; inhibition at 10 µM [22]: 33.8%; inhibition at 10 µM [23]: 56.9%; inhibition at 10 µM [24]: 87.7%; inhibition at 10 µM [25]: 92.6%; inhibition at 10 µM [26]: 73.1%; inhibition at 10 µM [27]: 10.6%; inhibition at 10 µM [28]: 76.3%; inhibition at 10 µM [29]: 40%; inhibition at 10 µM [30]: 64.3%; inhibition at 10 µM [31]: 46.7%; inhibition at 10 µM [32]: 58.5%
2 | c1ccc(CCNc2c3ccccc3nc3ccccc23)cc1 [Compound 23, Acridin-9-yl-phenethyl-amine] | 37.4 | 46.8 | 65.1 | 105 | 77.9 | 42.9 | 71.9 | 63.7 | 61.7 | 62 | 76.7 | 26.4 | 43.7 | 58.6 | 51.1 | 58.9 | 60.5 | 44.8 | 46.6 | 78.8 | inhibition at 10 µM [21]: 79.1%; inhibition at 10 µM [22]: 35.3%; inhibition at 10 µM [23]: 57.3%; inhibition at 10 µM [24]: 75%; inhibition at 10 µM [25]: 64.7%; inhibition at 10 µM [26]: 80.5%; inhibition at 10 µM [27]: 13.7%; inhibition at 10 µM [28]: 71.7%; inhibition at 10 µM [29]: 46.8%; inhibition at 10 µM [30]: 64.3%; inhibition at 10 µM [31]: 42.6%; inhibition at 10 µM [32]: 46.7%
3 | c1csc(-c2ccc(CNc3c4ccccc4nc4ccccc34)cc2)c1 [Compound 24, Acridin-9-yl-(4-thiophen-2-yl-benzyl)-amine] | 35 | 34.9 | 84.2 | 102 | 147 | 182 | 87.5 | 41 | 44.4 | 38.3 | 166 | 66.3 | 31 | 187 | 28.1 | 173 | 53.8 | 137 | 32.9 | 94.9 | inhibition at 10 µM [21]: 144%; inhibition at 10 µM [22]: 191%; inhibition at 10 µM [23]: 174%; inhibition at 10 µM [24]: 140%; inhibition at 10 µM [25]: 114%; inhibition at 10 µM [26]: 144%; inhibition at 10 µM [27]: 19.2%; inhibition at 10 µM [28]: 172%; inhibition at 10 µM [29]: 35.5%; inhibition at 10 µM [30]: 76%; inhibition at 10 µM [31]: 73.7%; inhibition at 10 µM [32]: 97.4%
4 | COc1ccc2nc3ccccc3c(NCc3ccccc3)c2c1 [Compound 25, Benzyl-(2-methoxyacridin-9-yl)-amine] | 55.5 | 61.3 | 80.3 | 114 | 91.5 | 77.5 | 88.2 | 73.1 | 71.8 | 77.5 | 86.9 | 49.7 | 65.6 | 136 | 64.7 | 77.1 | 75.8 | 72.9 | 71 | 119 | inhibition at 10 µM [21]: 95.7%; inhibition at 10 µM [22]: 81.2%; inhibition at 10 µM [23]: 74%; inhibition at 10 µM [24]: 94.2%; inhibition at 10 µM [25]: 94.1%; inhibition at 10 µM [26]: 131%; inhibition at 10 µM [27]: 52.1%; inhibition at 10 µM [28]: 80.5%; inhibition at 10 µM [29]: 54.1%; inhibition at 10 µM [30]: 71.3%; inhibition at 10 µM [31]: 63.5%; inhibition at 10 µM [32]: 66.6%
5 | COc1ccc2nc3ccccc3c(NCc3ccc(C)cc3)c2c1 [Compound 26, (2-Methoxyacridin-9-yl)-(4-methylbenzyl)-amine] | 47.3 | 53 | 76.4 | 102 | 98.8 | 78 | 89.3 | 64.8 | 71.3 | 78.4 | 88.6 | 48.4 | 57.9 | 158 | 69.4 | 84.7 | 70.8 | 108 | 66 | 141 | inhibition at 10 µM [21]: 113%; inhibition at 10 µM [22]: 65.6%; inhibition at 10 µM [23]: 71.3%; inhibition at 10 µM [24]: 97.3%; inhibition at 10 µM [25]: 93.8%; inhibition at 10 µM [26]: 146%; inhibition at 10 µM [27]: 30%; inhibition at 10 µM [28]: 81.5%; inhibition at 10 µM [29]: 44.3%; inhibition at 10 µM [30]: 88.6%; inhibition at 10 µM [31]: 62.7%; inhibition at 10 µM [32]: 92.9%
